According to patent publication US5952308A, “Mineral absorption promoting agent” (Pola Chemical Industries Inc., priority 1991, dated 1999):

Columns and labels:
[1] = tested on: hemoglobin; assay: Mineral absorption promoting effect test on animals (hemoglobin increase, iron utilization); assay type: in vivo, Wistar male rats
Description: Wistar male rats (body weight:80 g) were feeded for 3 weeks, giving iron-free feed, ferrous sulfate-added feed (iron: 12 ppm), or ferrous sulfate and oligogalacturonic acid-added feed (iron: 12 ppm, powder oligogalacturonic acid obtained in the preparation method 1=0.5%).
During the period, hemoglobin concentration in blood was measured every 7 days, and utilization ratios of iron in each of these feeds were compared, using hemoglobin increase (hemoglobin concentration in blood×blood volume) as an index.
Net increase of hemoglobin (number of tested rats = 10); unit: […]

[2] = tested on: Wistar rat; assay: Acute toxicity test of oligogalacturonic acid; settings: in vivo, po
Description: Acute toxicity test of oligogalacturonic acid
Animal: Wistar rat: One group comprising
10 each of male and female rats
Specimen: 50% oligogalacturonic acid aqueous
Oral forced administration
Dosage: Group 1 10 ml/kg

| Substance | Net increase of hemoglobin, 7th day ([1]; 7th day, feed with iron 12 ppm, n = 10 rats, ± SD) | Net increase of hemoglobin, 14th day ([1]; 14th day, feed with iron 12 ppm, n = 10 rats, ± SD) | Net increase of hemoglobin, 21st day ([1]; 21st day, feed with iron 12 ppm, n = 10 rats, ± SD) | Net increase of hemoglobin, at start ([1]; at start, feed with iron 12 ppm, n = 10 rats, ± SD) | Utilization ratio ([1]; iron in feed, 3 weeks, index hemoglobin increase (hemoglobin concentration in blood×blood volume)) | autopsy after 14 days [2] |
| --- | --- | --- | --- | --- | --- | --- |
| ferrous sulfate | 0.2 ± 0.1 g | 0.3 ± 0.1 g | 0.4 ± 0.2 g | 0 g | 33% | – |
| oligogalacturonic acid | – | – | – | – | – | no abnormal sign |
